Measured values published in patent US20060110385A1, “Means and methods for diagnosing and treating affective disorders” (Affectis Pharmaceuticals AG, priority 2003, published 2006).

Columns and labels:
P2X7R [1] = molecular target: T1, P2X7R (Rattus norvegicus, UniProt Q64663); conditions: concentrations of 10 to 300 μM; cited from earlier work
T1 sequence (Q64663 1-595): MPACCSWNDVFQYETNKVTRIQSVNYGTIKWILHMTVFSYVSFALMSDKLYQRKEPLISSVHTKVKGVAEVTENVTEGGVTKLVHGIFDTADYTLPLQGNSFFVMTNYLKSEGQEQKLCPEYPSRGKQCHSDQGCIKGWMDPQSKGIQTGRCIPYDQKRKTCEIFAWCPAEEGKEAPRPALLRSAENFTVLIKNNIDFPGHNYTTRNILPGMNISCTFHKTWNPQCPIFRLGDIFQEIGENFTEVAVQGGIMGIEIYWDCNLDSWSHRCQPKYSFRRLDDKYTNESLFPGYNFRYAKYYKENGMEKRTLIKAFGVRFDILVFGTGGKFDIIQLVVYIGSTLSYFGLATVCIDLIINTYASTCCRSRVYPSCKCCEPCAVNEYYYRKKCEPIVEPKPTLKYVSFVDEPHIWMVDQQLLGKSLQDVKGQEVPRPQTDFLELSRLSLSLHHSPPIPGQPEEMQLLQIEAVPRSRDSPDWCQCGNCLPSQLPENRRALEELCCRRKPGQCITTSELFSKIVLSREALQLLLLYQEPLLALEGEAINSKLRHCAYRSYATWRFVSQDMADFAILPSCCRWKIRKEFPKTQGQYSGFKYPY

DBA/201a mice = assay: Porsolt's forced swim test after intrahippocampal P2X7R antagonists; format: in vivo, mouse; conditions: 100 nM KN-62 or 10 μM oATP, 1 μl each side, dentate gyrus, 24 hours after injection
Text: In the present example, the P2X7R antagonists were directly injected into the dentate gyrus region of the hippocampus. Briefly, three months old male mice were bilaterally implanted with guide cannulae (23 gauge, length 8 mm) by means of a stereotactic instrument (David Kopf Instruments). The coordinates, in relation to bregma, were −1.5 mm posterior, ±1.0 mm lateral, and −0.8 mm ventral. Mice were allowed to recover for 10 to 13 days after surgery. Following this recovery period, mice were injected with 1 μl vehicle solution (0.01% DMSO, Sigma), or 100 nM KN-62 (Sigma, prepared in 0.01% DMSO), or 10 μM oATP (Sigma, prepared in PBS) in each side of the brain over a period of 60 seconds. All injections were performed using a 9 mm-31 gauge needle inserted into the guide cannulae and connected via tubing to a 10 μl Hamilton syringe.
The behaviour of individual mice was assessed using the Porsolt's forced swim test 24 hours after injection of vehicle solution, KN-62, or oATP. A pre-exposure of 5 minutes to the test was performed 15-17 minutes after administration of vehicle, KN-62, or oATP. A description of the Porsolt's forced swim test is given in example 9. […] Observed results were verified statistically using one-way MANOVA test.

P2X7R [2] = molecular target: T2, P2X7R (Homo sapiens, UniProt Q99572); assay: Calcium entry (Fluo-4 AM) in HT-22 cells overexpressing human P2X7R; format: cell-based; set-up: expressed in transfected cells; conditions: 20 μM BzATP or 50 μM tenidap
T2 sequence (Q99572 1-595): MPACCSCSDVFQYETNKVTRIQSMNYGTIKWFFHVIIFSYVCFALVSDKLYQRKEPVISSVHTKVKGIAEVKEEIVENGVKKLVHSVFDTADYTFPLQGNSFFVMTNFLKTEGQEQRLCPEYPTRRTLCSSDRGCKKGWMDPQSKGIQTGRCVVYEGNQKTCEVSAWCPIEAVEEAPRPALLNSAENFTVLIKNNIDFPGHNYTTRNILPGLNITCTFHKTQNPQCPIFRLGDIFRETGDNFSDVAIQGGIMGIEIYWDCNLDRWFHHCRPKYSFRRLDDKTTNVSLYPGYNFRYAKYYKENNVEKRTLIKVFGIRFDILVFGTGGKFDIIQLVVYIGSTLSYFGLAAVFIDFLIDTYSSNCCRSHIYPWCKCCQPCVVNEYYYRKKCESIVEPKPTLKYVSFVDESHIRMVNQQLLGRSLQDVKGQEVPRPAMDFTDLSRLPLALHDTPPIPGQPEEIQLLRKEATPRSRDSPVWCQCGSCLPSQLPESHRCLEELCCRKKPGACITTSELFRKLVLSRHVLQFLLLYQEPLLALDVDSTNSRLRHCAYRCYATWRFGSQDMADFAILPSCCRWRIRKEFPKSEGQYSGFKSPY
Text: Yet another method for identifying P2X7R agonists was devised by generating a immortalised mouse cell line that overexpresses the human P2X7R gene under the control of the human cytomegalovirus (CMV) early promoter/enhancer region. The human P2X7R cDNA was inserted into the pcDNA3.1 vector (Invitrogen) and transfected into the mouse hippocampal cell line HT-22 using Lipofectamine (Invitrogen) according to the manufacturer's specifications. One day after transfection, culture medium containing 500 μg/ml G418 was added to the cells. Resistant clones were separately isolated and cultured 14 days after applying the selection medium.
The agonistic activity of a compound was evaluated by measuring calcium entry in the cells that overexpress the human P2X7R. Cells were cultured in 96 well plates and incubated at 37° C. with 5% CO2 DMEM with 10% foetal calf serum (Gibco) until they reached confluence. Cells were then loaded for one hour with 10 μM of Fluo-4 AM (Molecular Probes). Fluo-4 AM is a fluorescent dye that binds to intracellular calcium. […] Agonist activity was detected by measuring an increase in calcium influx which results in increased binding to Fluo-4 AM and increased fluorescence. Changes in fluorescence signal are measured using a Fluostar Optima plate reader (BMG biotech). […] Thus, both compound stimulated the activity of P2X7R which results in an influx of ions into the cells.

P2X7R [3] = molecular target: T2, P2X7R; conditions: dose response curve, Y-axis ion current; cited from earlier work
P2X7R [4] = conditions: cited from earlier work
mice [5] = assay: Porsolt's forced swim test after long-term paroxetine; format: in vivo, mouse; conditions: paroxetine 10 mg/kg twice per day by gavage, 28 days, male mice
Protocol: Further validation of role of P2X7R in affective disorders was performed by examining its expression pattern in response to stress and treatment with antidepressant drugs. […] In parallel, a control group of mice was given vehicle solution (i.e. without paroxetine) using the same treatment regiment while a second control group of mice was left undisturbed and stress-free (i.e. untreated) during the same period of the experiments. At the end of the long-term treatment, part of the mice of each experimental group were tested in the dark/light box (test of anxiety behaviour) and in the Porsolt's forced swim test (test of depressive-like behaviour) to confirm the effectiveness of the treatment (FIG. 5). […] The other part of the experimental groups (i.e. mice without test experience) were decapitated, brains rapidly removed and frozen at −80° C. until usage.

mice [6] = assay: Porsolt's forced swim test after intrahippocampal siRNA; format: in vivo, mouse; conditions: 0.1 nmol/μl, 1 μl per side, dentate gyrus, 24 hours and 48 hours after infusion
Text: According to the observed expression pattern of P2X7R in the hippocampus (FIGS. 9, 10, and 11) and the known involvement of the hippocampus in depression, the dentate gyrus (hippocampus) was selected as target region for siRNA application. Male, naive mice were bilaterally implanted with a guide cannulae (23 gauge, length 8 mm) by means of a stereotactic instrument. The coordinates, in relation to bregma, were −2.0 mm posterior, ±1.0 mm lateral, and −1.0 mm ventral. Following a recovery period of 5 days, the mice were divided into three experimental groups: vehicle (veh), control double stranded RNA (control), and P2X7R specific double stranded siRNA (siRNA). Sequences used for P2X7R siRNA are 5′-[…]-3′ and 5′-[…]-3′. Both sequences and were annealed and injected together as a double stranded RNA. On day 6 after surgery, mice were slightly anaesthetized with Isofluran and injections of siRNA were carried out. […]
The effects of P2X7R inhibition on depressive-like behaviour was assessed 24 hours and 48 hours after infusion of siRNA, control or vehicle according to the standard test paradigm, the Porsolt's forced swim test (Porsolt et al., Arch. Int. Pharmacodym. 229 (1977), 327-336; Porsolt, Rev. Neurosci. 11 (2000), 53-58). […] Compared to vehicle application, no influence of control double stranded RNA (5′-[…]-3′) on floating behaviour (passive stress coping) was detected. […]

P2X7R [7] = assay: P2X7R protein expression by immunohistochemistry after siRNA injection; format: in vivo, mouse
Text: At the end of the experiment, the mice were sacrificed and the brains were examined to confirm the location and efficiency of the siRNA injections. For this purpose the brains were cut into sections and the slides were stained by immunohistochemistry using the above mentioned protocols. Brains from mice injected with the specific double stranded siRNA, with control double stranded RNA and with vehicle were examined in parallel. Under these conditions, the specific siRNA directed against P2X7R injected near the dentate gyrus induced on average an 80% inhibition of P2X7R protein expression as compared to the samples from mice injected with vehicle or with control double stranded RNA. […] This inhibition produced behavioural changes indicating a causative role for P2X7R in affective disorders.

Compound: CC(CCc1ccccc1)NCC(O)c1ccc(O)c(C(N)=O)c1 (stereo not shown) [labetolol]
- opening of the cation channel activity of P2X7R (P2X7R [1]): without affecting the opening of the cation channel activity of P2X7R
- pore-forming activity of P2X7R (P2X7R [1]): inhibit the pore-forming activity of P2X7R

Compound: CN([C@@H](Cc1ccc(OS(=O)(=O)c2cccc3cnccc23)cc1)C(=O)N1CCN(c2ccccc2)CC1)S(=O)(=O)c1cccc2cnccc12 [KN-62, 1-(N,O-bis[5-isoquinolinesulphonyl]-N-methyl-L-tyrosyl)-4-phenylpiperazine]
- active escape attempts (time, frequency, latency of struggling) (DBA/201a mice): no changes
- passive behaviour (time, frequency, latency of floating) (DBA/201a mice): no changes

Compound: CC(C)NC[C@@H](O)COc1cccc2ccccc12 [D-propanolol]
- opening of the cation channel activity of P2X7R (P2X7R [1]): without affecting the opening of the cation channel activity of P2X7R
- pore-forming activity of P2X7R (P2X7R [1]): inhibit the pore-forming activity of P2X7R

Compound: NC(=O)N1C(=O)/C(=C(\O)c2cccs2)c2cc(Cl)ccc21 [tenidap, 5-chloro-2,3-dihydro-2-oxo-3-(2-thienylcarbonyl)-indole-1-carboxamide]
- fluorescence intensity (calcium influx, Fluo-4 AM) (P2X7R [2]): rapid increase in fluorescence intensity

Compound: Nc1ncnc2c1ncn2[C@@H]1O[C@H](COP(=O)(O)OP(=O)(O)OP(=O)(O)O)[C@@H](O)[C@H]1O [ATP]
- EC50 (P2X7R [3]): 300 µM
- levels of ATP required to achieve activation (P2X7R [4]): > 1 mM

Compound: Fc1ccc([C@@H]2CCNC[C@H]2COc2ccc3c(c2)OCO3)cc1 [paroxetine]
- passive stress coping behaviour (floating) in the forced swim test (mice [5]): decreased

Compound: CC(C)NCC(O)COc1cccc2ccccc12 (racemic) [DL-propanolol]
- opening of the cation channel activity of P2X7R (P2X7R [1]): without affecting the opening of the cation channel activity of P2X7R
- pore-forming activity of P2X7R (P2X7R [1]): inhibit the pore-forming activity of P2X7R

Compound: P2X7R specific siRNA: double stranded siRNA, 5′-GUGGGUCUUGCACAUGAUCTT-3′ annealed with 5′-GAUCAUGUGCAAGACCCACTT-3′ (chemistry not given here)
- passive (floating) behaviour in the forced swim test (mice [6]): significant increase in passive behaviour
- passive (floating) behaviour in the forced swim test (mice [6]; listed as siRNA targeting P2X7R): increased
- inhibition of P2X7R protein expression (P2X7R [7]; injected near the dentate gyrus, compared to vehicle or control double stranded RNA): 80%
- local inflammation or infiltration at the hippocampus (P2X7R [7]; intrahippocampal injection): did not produce any sign of local inflammation or infiltration
